From patent US20070093455A1, “10-substituted tetracyclines and methods of use thereof” (priority 2005, published 2007) come the findings set out here.

In brackets after ≈: the same amount, converted by molar mass.

One data set concerns S. aureus RN450. Kind of data set: In vitro MIC assay, S. aureus RN450. Type of data set: cell-based. The note with it: Staphylococcus aureus, broth microdilution, 35° C., 18-24 hours.
A further data set has as its system S. aureus MRSA5. Kind of data set: In vitro MIC assay, S. aureus MRSA5. Type of data set: cell-based. The note with it: Staphylococcus aureus, broth microdilution, 35° C., 18-24 hours.
The next data set has as its system S. aureus RN4250. Kind of data set: In vitro MIC assay, S. aureus RN4250. Type of data set: cell-based. The note with it: Staphylococcus aureus, broth microdilution, 35° C., 18-24 hours.
The subject of the next data set is S. pneumoniae 157E. Kind of data set: In vitro MIC assay, S. pneumoniae 157E. The class given is cell-based. The note with it: Streptococcus pneumoniae, broth supplemented with lysed horse blood, 35° C., 18-24 hours.
The test system of a further data set is E. coli (ATCC 25922). Kind of data set: In vitro MIC assay, E. coli (ATCC 25922). The class given is cell-based. The note with it: Escherichia coli, ATCC25922; broth microdilution, 35° C., 18-24 hours.
The test system of the next data set is E. coli MG 1655 DWAK. Kind of data set: In vitro MIC assay, E. coli MG 1655 DWAK. The note with it: Escherichia coli, MG1655DWAK; broth microdilution, 35° C., 18-24 hours. The class given is cell-based. As for the experimental part: The following assay was used to determine the efficacy of tetracycline compounds against common bacteria. Serial dilutions of compounds were prepared in microdilution plates using a Tecan robotic workstation. Mueller Hinton broth cultures of gram negative and gram positive strains were grown or adjusted to match the turbidity of a 0.5 McFarland standard. 1:200 dilutions were made in appropriate broth (cation supplemented Mueller Hinton broth or Haemophilus test medium) to allow a final inoculum of 1×10^5 cfu. Lysed horse blood was used to supplement broth for testing S. pneumoniae. The plates were incubated at 35° C. in ambient air for 18-24 hours, read spectrophotometrically, and checked manually for evidence of bacterial growth. Serial dilutions of compounds were also added to Brucella agar supplemented with laked sheep blood for P. acnes tests. A standard inoculum was transferred to the plate using a stainless steel replicator. After 48 hours of anaerobic incubation at 35° C. plates were examined. The MIC was defined as the lowest concentration of the tetracycline compound that inhibits growth. Table 3 gives the MIC (μg/mL) of selected substituted tetracycline compounds against a variety of gram positive and gram negative bacteria.
(Broth dilution looks for growth in wells or tubes with falling amounts of substance.)

The subject of another data set is P. aeruginosa K1033. Kind of data set: In vitro MIC assay, P. aeruginosa K1033. Type of data set: cell-based. The note with it: Pseudomonas aeruginosa, broth microdilution, 35° C., 18-24 hours.
Data set [1] concerns H. influenza (ATCC 49247). Kind of data set: In vitro MIC assay, H. influenza (ATCC 49247). The class given is cell-based. The note with it: read-out: MIC H. influenza (ATCC 49247).
Another data set concerns B. fragilis (ATCC 25285). Kind of data set: In vitro MIC assay, B. fragilis (ATCC 25285). The class given is cell-based. The note with it: Bacteroides fragilis, ATCC25285.
For data set [2], the system named is B. theraiotaomicron (ATCC 29741). Kind of data set: In vitro MIC assay, B. theraiotaomicron (ATCC 29741). Type of data set: cell-based.
The next data set has as its system P. acnes (ATCC 6919). Kind of data set: In vitro MIC assay, P. acnes (ATCC 6919). The class given is cell-based. The note with it: Cutibacterium acnes, ATCC6919; Brucella agar with laked sheep blood, 48 hours anaerobic, 35° C.
The next data set has as its system P. acnes (ATCC 11827). Kind of data set: In vitro MIC assay, P. acnes (ATCC 11827). The class given is cell-based. The note with it: Cutibacterium acnes, ATCC11827; Brucella agar with laked sheep blood, 48 hours anaerobic, 35° C.
The test system of a further data set is P. acnes (PBS 1073). Kind of data set: In vitro MIC assay, P. acnes (PBS 1073). The class given is cell-based. The note with it: Cutibacterium acnes; Brucella agar with laked sheep blood, 48 hours anaerobic, 35° C.
The next data set relates to P. acnes (PBS 1074). Kind of data set: In vitro MIC assay, P. acnes (PBS 1074). The note with it: Cutibacterium acnes; Brucella agar with laked sheep blood, 48 hours anaerobic, 35° C. Type of data set: cell-based.
A further data set has as its system P. acnes (ATCC 1077). Kind of data set: In vitro MIC assay, P. acnes (ATCC 1077). Type of data set: cell-based. The note with it: Cutibacterium acnes, ATCC1077; Brucella agar with laked sheep blood, 48 hours anaerobic, 35° C.
The subject of another data set is COS-1 or CHO cell. Kind of data set: Mammalian cell cytotoxicity assay (Resazurin; Alamar Blue). The class given is cell-based. The note with it: COS-1 or CHO cells, 24 hour incubation. As for the experimental part:
To predict the in vivo risks associated with the compounds of the invention, a soluble, non-toxic redox dye (“Resazurin”; Alamar Blue) was used to assess a compound's effect on cellular metabolism. COS-1 or CHO cell suspensions were prepared, seeded into 96-well black-walled microtiter plates, and incubated overnight at 37° C., in 5% CO2 and approximately 95% humidity. On the next day, serial dilutions of test drug were prepared and transferred to cell plates. Following a 24 hour incubation period, the media/drug was aspirated, and 50 μL of resazurin was added. After a 2 hour incubation, fluorescence measurements were taken (excitation […], emission 590 nm) and toxic effects in treated versus control cells were compared based on the degree of fluorescence in each well.
(In general: Resazurin is reduced to fluorescent resorufin, in cell work by metabolically active cells.)

For a further data set, the system named is P. acnes (PBS 1080). Kind of data set: In vitro MIC assay, P. acnes (PBS 1080). The class given is cell-based. The note with it: Cutibacterium acnes; Brucella agar with laked sheep blood, 48 hours anaerobic, 35° C.
The test system of another data set is P. acnes (PBS 994). Kind of data set: In vitro MIC assay, P. acnes (PBS 994). The note with it: Cutibacterium acnes; Brucella agar with laked sheep blood, 48 hours anaerobic, 35° C. Type of data set: cell-based.
In another data set the test system is P. granulosum (PBS 1048). Kind of data set: In vitro MIC assay, P. granulosum (PBS 1048). Type of data set: cell-based.
In another data set the test system is P. granulosum (PBS 1098). Kind of data set: In vitro MIC assay, P. granulosum (PBS 1098). The class given is cell-based.
A further data set has as its system E. coli translation. Kind of data set: In vitro translation assay for inhibition of bacterial protein synthesis (E. coli S30 Extract System, luciferase). Type of data set: biochemical. The note with it: 37° C., 1 hour, luciferase luminescence. As for the experimental part:
As a further measure of antibacterial activity, an E. coli S30 Extract System was used to quantitate inhibition of E. coli translation by tetracycline derivatives. This system contained all required components for translation, including a nucleic acid template which, when translated, produces functional luciferase. The reactions were set up with E. coli S30 extract, amino acids, DNA template and selected tetracycline compounds at concentrations of 100, 50, 25, 10, 5, and 1 μg/ml. The reactions were incubated at 37° C. for 1 hour and analyzed by adding the reaction mix to Steady-Glo Luciferase Assay substrate (Promega, Madison Wis.). Luminescence was measured with the Wallac Victor5 plate reader and inhibition is calculated by comparing luciferase activity in experimental reactions versus controls.

Data set [3] relates to carrageenan induced paw edema. Kind of data set: Rat model of carrageenan induced paw edema. Type of data set: in vivo. The note with it: 75 mg/kg IP, 3 hours after carrageenan injection. As for the experimental part: Carrageenan-induced paw edema represents a commonly used experimental model to assess the anti-inflammatory properties of agents. In this example, male Sprague-Dawley rats (Charles River, Mass.) weighing 175-250 grams were used. Test compounds were administered intraperitoneally 5 minutes or orally 15 minutes before a subplantar injection of carrageenan (5 mg/1 ml) in the rat right hind paw. The paw volume (ml) was monitored with a plethysmometer (Water Plethysmometer) at time of carrageenan injection (baseline) and 3 hours after carrageenan injection. […] Both results were statistically significant with a p<0.1 level by Kruskal-Wallis One Way ANOVA, ChiSquare. There were approximately four rats per group.
For orientation: The carrageenan paw model is a standard test of acute inflammation.

Data set [4] has as its system Mouse 3T3 fibroblast cells. Kind of data set: Phototoxicity assay (neutral red). Type of data set: cell-based. The note with it: 3T3 cells. As for the experimental part:
Mouse 3T3 fibroblast cells were harvested and plated at a concentration of 1×10^5 cells/mL. Drug dilutions were made in HBSS and added to the plates. Duplicate plates were then incubated in the dark (for controls), or under UV light (meter reading of 1.6-1.8 mW/cm^2) for 50 minutes. Cells were then washed with HBSS, fresh medium was added, and plates were then incubated overnight. The following day, neutral red was added as an indicator of cell viability and plates were incubated for an additional 3 hours. Cells were then washed with HBSS and a solution of 50% EtOH, 10% glacial acetic acid is added. After a 20 minute incubation period, plates absorbance at 535 nm were read using a Wallac Victor 5 spectrophotometer. The phototoxicity in light-treated and control cultures was then compared.

In the case of `CN(C)[C@H]1C(O)=C(C(N)=O)C(=O)[C@@]2(O)C(O)=C3C(=O)c4cccc(-c5ncccn5)c4CC3CC12` (stereo partly shown) [L], the MIC is 0 to 21 µg/mL in the data set with S. aureus RN450; 0 to 21 µg/mL against S. aureus MRSA5; 0 to 21 µg/mL against S. aureus RN4250; 0 to 21 µg/mL against S. pneumoniae 157E; 22 to 43 µg/mL (≈ 46.2 to 90.2 µM) in the data set on E. coli (ATCC 25922); 0 to 21 µg/mL against E. coli MG 1655 DWAK. Further, the MIC against P. aeruginosa K1033 was in the range of 0 to 21 µg/mL; in data set [1], 44 to 64 µg/mL (≈ 92.3 to 134 µM); with B. fragilis (ATCC 25285) it was 0 to 8 µg/mL; in data set [2], 28 to 32 µg/mL (≈ 58.8 to 67.2 µM); with P. acnes (ATCC 6919), 0 to 8 µg/mL; with P. acnes (ATCC 11827) it was 0 to 8 µg/mL. Also, the MIC against P. acnes (PBS 1073), against P. acnes (PBS 1074) and against P. acnes (ATCC 1077) was 28 to 32 µg/mL (≈ 58.8 to 67.2 µM) each time. Further, in the data set with COS-1 or CHO cell, the “cytotoxicity at 75 μg/mL” value is “minimal cytotoxicity”.

One may read the IC20 as the concentration needed for an effect of 20%. High values mean a need for much substance, low ones an effect from little substance. Usually IC50 stands for the concentration that gives 50% inhibition. Turning to `CN(C)c1cccc2c1CC1CC3[C@H](N(C)C)C(O)=C(C(N)=O)C(=O)[C@@]3(O)C(O)=C1C2=O` (stereo partly shown) [Compound A], the MIC with S. aureus RN450 was 0 to 21 µg/mL; in the data set on S. aureus MRSA5, 44 to 64 µg/mL (≈ 99.7 to 145 µM); in the data set with S. aureus RN4250 it was 0 to 21 µg/mL; in the data set on S. pneumoniae 157E, 0 to 21 µg/mL; with E. coli (ATCC 25922) it was 22 to 43 µg/mL (≈ 49.8 to 97.4 µM); with E. coli MG 1655 DWAK, 0 to 21 µg/mL. The MIC with P. aeruginosa K1033 lay in the range of 0 to 21 µg/mL; in [1], 22 to 43 µg/mL (≈ 49.8 to 97.4 µM); in the data set with B. fragilis (ATCC 25285) it was 0 to 8 µg/mL; in [2] it was 9 to 27 µg/mL (≈ 20.4 to 61.2 µM); in the data set on P. acnes (ATCC 6919) it was 0 to 8 µg/mL; in the data set with P. acnes (ATCC 11827) it was 0 to 8 µg/mL. For the same compound, the MIC in the data set with P. acnes (PBS 1073), in the data set on P. acnes (PBS 1074), in the data set with P. acnes (ATCC 1077), in the data set with P. acnes (PBS 1080), in the data set with P. acnes (PBS 994) and against P. granulosum (PBS 1048) was 9 to 27 µg/mL (≈ 20.4 to 61.2 µM) each time. Besides, the MIC against P. granulosum (PBS 1098) fell in the range of 9 to 27 µg/mL (≈ 20.4 to 61.2 µM). In the data set with E. coli translation, this compound displayed an IC20 of over 100 µM. Further, in the data set with E. coli translation, the half-maximal inhibitory concentration (IC50) was over 100 µM. Moreover, in data set [3], the “decrease in paw inflammation relative to the untreated control” value is listed as 60%. Also, the “cytotoxicity at 75 μg/mL” value in the data set with COS-1 or CHO cell is “minimal cytotoxicity”. For the same compound, the “phototoxicity at 150 μM, incubated in the dark” value in [4] is reported as “not to be appreciably phototoxic”.

With `CC(=O)c1cccc2c1CC1CC3[C@@H](N(C)C)C(O)=C(C(N)=O)C(=O)[C@@]3(O)C(O)=C1C2=O` (stereo partly shown) [I], the MIC against S. aureus RN450 was in the range of 0 to 21 µg/mL; with S. aureus MRSA5 it was 0 to 21 µg/mL; against S. aureus RN4250, 0 to 21 µg/mL; in the data set on S. pneumoniae 157E, 0 to 21 µg/mL; against E. coli (ATCC 25922), 22 to 43 µg/mL (≈ 49.9 to 97.6 µM); against E. coli MG 1655 DWAK it was 0 to 21 µg/mL. The MIC in the data set with P. aeruginosa K1033 fell in the range of 0 to 21 µg/mL; in data set [1], 0 to 21 µg/mL; in the data set with B. fragilis (ATCC 25285), 0 to 8 µg/mL; in [2], 28 to 32 µg/mL (≈ 63.6 to 72.7 µM); in the data set on P. acnes (ATCC 6919) it was 0 to 8 µg/mL; against P. acnes (ATCC 11827) it was 0 to 8 µg/mL. Besides, the MIC in the data set with P. acnes (PBS 1073), in the data set on P. acnes (PBS 1074) and with P. acnes (ATCC 1077) was 28 to 32 µg/mL (≈ 63.6 to 72.7 µM) throughout. Also, the “cytotoxicity at 75 μg/mL” value in the data set with COS-1 or CHO cell was “minimal cytotoxicity”. Further, the “phototoxicity at 30 μM, incubated in the UV light” value in [4] (UV light 1.6-1.8 mW/cm^2, 30 μM) was “minimally phototoxic”. For the same compound, in data set [4], the “phototoxicity at 150 μM, incubated in the dark” value was “not to be appreciably phototoxic”.
